Here are results for 4 compounds from patent US5968763A, “Method for screening inhibitors of the enzyme which cleaves the anchor of surface proteins from gram positive bacteria” (The Rockefeller University, priority 1997, dated 1999).

The structures appear in SMILES notation.

This test relates to LPXTGX cleavage enzyme (carbonate extract of D471 membranes). Put plainly: Cleavage of 125I-labeled LPSTGE synthetic peptide linked to beads (release of radiolabel) by carbonate extract of streptococcal membranes. The test is classed as biochemical, M type 6 streptococcal strain D471 (Streptococcus pyogenes). As to conditions: carbonate extract of the membranes as enzyme source, FIG. 3; for cleavage activity in the presence of inhibitor: 1 mM each. The method, then:
The peptide was radiolabeled with ^125 I using Iodobeads and then the labeled peptide was purified on a Sephadex G10 column and covalently linked by its N-terminal end by EDC (ethyl-3-(3 […])carbodiimide HCl) to an extended arm on a commercially available bead (3M Emphase Biospheres AB1 from Pierce, Rockford, Ill.), and the excess radiolabel removed by washing the beads with 1 M NaCl buffer.
M type 6 streptococcal strain D471 was treated with 0.1 M sodium carbonate (pH 11.5) and incubated for 30 minutes at 0° C. to extract the streptococcal membranes.
The resulting extract was mixed with the labeled beads of Example 1 (50 μl sample, 50 μl 50 mM Tris HCl (pH 8.0) with 10 mM DTT).
The carbonate extract was chromatographed on a 20 HQ perfusion chromatography column, using a Biocad Sprint instrument (Perceptive Biosystem), employing a NaCl gradient from 0 mM to 500 mM (24.9 ml) followed by a 500 mM to 1000 mM (33.2 ml) gradient. To measure the enzyme activity found in the fractions, a 50 μl sample from each fraction was mixed in a reaction buffer in a final volume of 100 μl containing 5 mM DTT and 5 μl of the bead-substrate as described in Example 1. Control samples containing only buffer and the substrate were also mixed and incubated at 37° C. for 4 hours under constant slow rotation. The released radioactivity was then measured in 25 μl of the supernatant obtained after centrifugation. The specific activity was measured after subtracting the control values from the test samples.
FIG. 3 illustrates the enzymatic activity of the carbonate extract of the membranes (as the enzyme source) in the presence of various inhibitors and activators.

Turning to `[Ca+2]` [calcium], where the note is “divalent cations such as calcium”, the “enzymatic (cleavage) activity in the presence of divalent cations” value is recorded as “enhanced”.

`O=C(O)c1cc[c]([Hg][OH])cc1` [PHMB, parahydroxymercuribenzoic acid]: the “cleavage activity in the presence of inhibitor” value is recorded as “inhibited cleavage activity”.

On to `O=S(=O)(O)c1cc[c]([Hg][OH])cc1` [PHMPS, parahydroxymercuriphenylsulfonic acid], for which the “cleavage activity in the presence of inhibitor” value was “inhibited cleavage activity”.

`OC(CS)C(O)CS` (stereo not shown) [DTT]: for the setting “5 mM DTT”, the “enzymatic (cleavage) activity in the presence of activator” value is listed as “enhanced”.
